In PubChem BioAssay (NCI):
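All cell lines were grown in 96-well plates and treated with compound for 48 hours. Abbreviation: GI50, concentration required for 50% inhibition of growth. TGI denotes the concentration required for complete inhibition of growth.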

Key:
Test in all cases: NCI-60 cell line screen, 48 h
[1] = system: NCI-H460 lung
[2] = system: HS 578T breast
[3] = system: SN12C renal
[4] = system: A498 renal
[5] = system: U251 CNS
[6] = system: MALME-3M melanoma
[7] = system: BT-549 breast
[8] = system: K-562 leukemia
[9] = system: NCI/ADR-RES ovarian
[10] = system: OVCAR-4 ovarian
[11] = system: HCT-15 colon
[12] = system: SK-MEL-5 melanoma
[13] = system: DU-145 prostate
[14] = system: SR leukemia
[15] = system: 786-0 renal
[16] = system: KM12 colon
[17] = system: LOX IMVI melanoma
[18] = system: CCRF-CEM leukemia
[19] = system: NCI-H226 lung
[20] = system: HCC-2998 colon
[21] = system: PC-3 prostate
[22] = system: OVCAR-8 ovarian
[23] = system: SF-539 CNS
[24] = system: A549 NSCLC
[25] = system: MDA-MB-435
[26] = system: SNB-75 CNS
[27] = system: SW-620 colon
[28] = system: SF-268 CNS
[29] = system: TK-10 renal
[30] = system: SK-MEL-2 melanoma
[31] = system: CAKI-1 renal
[32] = system: RPMI-8226 leukemia
[33] = system: SNB-19 CNS
[34] = system: HT29 colon
[35] = system: MOLT-4 leukemia
[36] = system: IGROV1 ovarian
[37] = system: EKVX NSCLC
[38] = system: T-47D breast
[39] = system: COLO 205 colon
[40] = system: MDA-MB-231 breast
[41] = system: UACC-257 melanoma
[42] = system: RXF 393 renal
[43] = system: SF-295 CNS
[44] = system: HCT-116 colon
[45] = system: M14 melanoma
[46] = system: UACC-62 melanoma
[47] = system: MCF7 breast
[48] = system: UO-31 renal
[49] = system: SK-MEL-28 melanoma
[50] = system: ACHN renal
[51] = system: NCI-H23 lung
[52] = system: SK-OV-3 ovarian
[53] = system: OVCAR-3 ovarian
[54] = system: HL-60(TB) leukemia
[55] = system: HOP-62 NSCLC
[56] = system: HOP-92 NSCLC
[57] = system: OVCAR-5 ovarian
[58] = system: NCI-H522 lung

## Cc1cc(-c2ccccn2)cc(C)c1/C=C/c1cncc(-c2nn[nH]n2)c1
[1]
  GI50: > 25 µM
  TGI: > 25 µM
[2]
  GI50: > 25 µM
  TGI: > 25 µM
[3]
  GI50: > 25 µM
  TGI: > 25 µM
[4]
  GI50: > 25 µM
  TGI: > 25 µM
[5]
  GI50: > 25 µM
  TGI: > 25 µM
[6]
  GI50: > 25 µM
  TGI: > 25 µM
[7]
  GI50: > 25 µM
  TGI: > 25 µM
[8]
  GI50: > 25 µM
  TGI: > 25 µM
[9]
  GI50: > 25 µM
  TGI: > 25 µM
[10]
  GI50: > 25 µM
  TGI: > 25 µM
[11]
  GI50: > 25 µM
  TGI: > 25 µM
[12]
  GI50: > 25 µM
  TGI: > 25 µM
[13]
  GI50: > 25 µM
  TGI: > 25 µM
[14]
  GI50: > 25 µM
  TGI: > 25 µM
[15]
  GI50: > 25 µM
  TGI: > 25 µM
[16]
  GI50: > 25 µM
  TGI: > 25 µM
[17]
  GI50: > 25 µM
  TGI: > 25 µM
[18]
  GI50: > 25 µM
  TGI: > 25 µM
[19]
  GI50: > 25 µM
  TGI: > 25 µM
[20]
  GI50: > 25 µM
  TGI: > 25 µM
[21]
  GI50: > 25 µM
  TGI: > 25 µM
[22]
  GI50: > 25 µM
  TGI: > 25 µM
[23]
  GI50: > 25 µM
  TGI: > 25 µM
[24]
  GI50: > 25 µM
  TGI: > 25 µM
[25]
  GI50: > 25 µM
  TGI: > 25 µM
[26]
  GI50: > 25 µM
  TGI: > 25 µM
[27]
  GI50: > 25 µM
  TGI: > 25 µM
[28]
  GI50: > 25 µM
  TGI: > 25 µM
[29]
  GI50: > 25 µM
  TGI: > 25 µM
[30]
  GI50: > 25 µM
  TGI: > 25 µM
[31]
  GI50: > 25 µM
  TGI: > 25 µM
[32]
  GI50: > 25 µM
  TGI: > 25 µM
[33]
  GI50: > 25 µM
  TGI: > 25 µM
[34]
  GI50: > 25 µM
  TGI: > 25 µM
[35]
  GI50: > 25 µM
  TGI: > 25 µM
[36]
  GI50: > 25 µM
  TGI: > 25 µM
[37]
  GI50: > 25 µM
  TGI: > 25 µM
[38]
  GI50: > 25 µM
  TGI: > 25 µM
[39]
  GI50: > 25 µM
  TGI: > 25 µM
[40]
  GI50: > 25 µM
  TGI: > 25 µM
[41]
  GI50: > 25 µM
  TGI: > 25 µM
[42]
  GI50: > 25 µM
  TGI: > 25 µM
[43]
  GI50: > 25 µM
  TGI: > 25 µM
[44]
  GI50: > 25 µM
  TGI: > 25 µM
[45]
  GI50: > 25 µM
  TGI: > 25 µM
[46]
  GI50: > 25 µM
  TGI: > 25 µM
[47]
  GI50: > 25 µM
  TGI: > 25 µM
[48]
  GI50: > 25 µM
  TGI: > 25 µM
[49]
  GI50: > 25 µM
  TGI: > 25 µM
[50]
  GI50: > 25 µM
  TGI: > 25 µM
[51]
  GI50: > 25 µM
  TGI: > 25 µM
[52]
  GI50: > 25 µM
  TGI: > 25 µM
[53]
  GI50: > 25 µM
  TGI: > 25 µM
[54]
  GI50: > 25 µM
  TGI: > 25 µM
[55]
  GI50: > 25 µM
  TGI: > 25 µM
[56]
  GI50: > 18.4 µM
  TGI: > 25 µM
[57]
  GI50: > 25 µM
  TGI: > 25 µM
[58]
  GI50: > 25 µM
  TGI: > 25 µM
